This is an account of results in PubChem BioAssay AID1996.

Each structure is given as a SMILES string. Values after ≈ are worked out from the molar mass of the structure shown.

The conditions of the data set: buffer; pH 7.4; 200.0 µM.
As for `CC1Cc2ccccc2N1C(=O)/C=C/c1cccc(F)c1` (stereo not drawn), the solubility (kinetic) – broadly, the concentration staying in solution when a stock, usually in DMSO, is diluted into the medium – was 6.2 µg/mL (≈ 22 µM).
As for `CC1CC(C)(C)Nc2ccc(N=O)cc21` (stereo not drawn), the kinetic solubility was more than 30.6 µg/mL.
In the case of `O=[N+]([O-])c1cccc2c(Cl)ccnc12`, the kinetic solubility is more than 31.3 µg/mL.
Molecule `CCCC1=[N+](CC(C)=O)CCn2c(C)ccc21.[Br-]` displayed a kinetic solubility of more than 47 µg/mL.
Molecule `CC1CCC2(CC1)NC(=O)N(CC(=O)NCCc1ccccc1)C2=O` (stereo not drawn) displayed a solubility (kinetic) of more than 51.5 µg/mL.
In turn, `Fc1ccc(NC(=S)N2CCc3ccccc3C2)c(F)c1` came in with a kinetic solubility of 37.3 µg/mL (≈ 123 µM).
Turning to `CCn1c(=O)c2c(nc3n2CCCN3c2cccc(C)c2)n(C)c1=O`, the kinetic solubility was determined as 48.3 µg/mL (≈ 142 µM).
The result for `Cc1nn(C)cc1S(=O)(=O)NCc1ccc2c(c1)OCO2` reads more than 46.4 µg/mL; that for `Cc1ccccc1NC(=O)CCOc1ccccc1`, more than 38.3 µg/mL; that for `CC(C)CC(C(=O)Nc1ccccc1)N1C(=O)C2C3C=CC(C3)C2C1=O` (stereo not drawn), more than 52.9 µg/mL.
In turn, `Cc1cc(C(=O)OCC(=O)N2CCOCC2)c(C)n1-c1ccccc1` gave a solubility (kinetic) of 48.6 µg/mL (≈ 142 µM).
`CNC(=O)CSc1nnc(-c2ccccc2)n1C`: the kinetic solubility was more than 39.3 µg/mL.
`O=C(Nc1ccc(Br)cc1)C1CC(c2c(F)cccc2Cl)=NO1` (stereo not drawn) returned a solubility (kinetic) of 6.7 µg/mL (≈ 16.8 µM).
Under `FC(F)Oc1ccc(-c2c[n+]3c(n2-c2ccccc2)CCCCC3)cc1` stands 50.7 µg/mL.
As for `CCCN1C(=O)C(O)(C2COC(C)(C)CC2=O)c2ccccc21` (stereo not drawn), the kinetic solubility was 33.7 µg/mL (≈ 106 µM).
`CN(C)c1ccc(/C=C/c2nc3ccccc3c(=O)[nH]2)cc1` showed a kinetic solubility of 0.6 µg/mL (≈ 2.06 µM).
In turn, `COc1ccc(NC(=O)CSCC(=O)N=c2sccn2C)cc1` registered a solubility (kinetic) of 49.9 µg/mL (≈ 142 µM). This solubility kinetic is about 83-fold higher than that of the molecule before.
`CCOC(=O)C1CCN(S(=O)(=O)c2cn(C)c(C)n2)CC1` gave a kinetic solubility of more than 47.3 µg/mL.
Turning to `O=C(CSc1ccc2ccccc2n1)NC1CC1`, the solubility (kinetic) stood at 38 µg/mL (≈ 147 µM).
`C=Cn1cc[n+](CC(=O)c2ccc(Br)s2)c1.[Br-]`: the kinetic solubility is 53 µg/mL.
Consider `COC(=O)c1cc(C(=O)c2cc(Cl)ccc2O)coc1=N`, for which the solubility (kinetic) came to 41.9 µg/mL (≈ 136 µM).
As for `Cl.N[C@@H](CCl)C(=O)O`, the solubility (kinetic) is more than 24 µg/mL.
`COc1ccc(CCNCc2ccccc2)cc1.O=C(O)C(=O)O` came in with a solubility (kinetic) of more than 49.7 µg/mL.
Molecule `COC(=O)c1ccc(C(=O)NC2CCSc3ccccc32)cc1` (stereo not drawn) registered a solubility (kinetic) of 4 µg/mL (≈ 12.2 µM).
For the molecule `COc1ccc(CN2CCN(C3CCC3)CC2CCO)c(F)c1` (stereo not drawn), the kinetic solubility worked out at 42.2 µg/mL (≈ 131 µM).
Regarding `CCc1nc(SCC(=O)O)c(C#N)c2c1CCCC2`, the kinetic solubility was more than 41.5 µg/mL.
For the molecule `CN(CC(=O)Nc1ccc(F)c(F)c1F)C(=O)/C=C/c1ccco1`, the kinetic solubility is more than 50.7 µg/mL.
The result for `CC(=O)Nc1ccc(NC(=O)C(C)OC(=O)c2ccc(S(=O)(=O)N3CCCCCC3)cc2)cc1` (stereo not drawn) reads 9.6 µg/mL (≈ 19.7 µM).
For the molecule `Cc1ccc2oc(=O)cc(CN3CC(C)OC(C)C3)c2c1` (stereo not drawn), the solubility (kinetic) was more than 43.1 µg/mL.
For the molecule `N#CC(C#N)=Cc1ccc(OCC(=O)N2CCOCC2)cc1`, the solubility (kinetic) was more than 44.6 µg/mL.
As to `Cc1cc(C(=O)N2C(C)CCCC2C)no1` (stereo not drawn), the solubility (kinetic) was more than 33.3 µg/mL.
Under `[Br-].c1ccc(-c2c[n+]3c(n2-c2ccccc2)CCC3)cc1` stands more than 51.2 µg/mL; under `COC(=O)CSc1[nH]c2ccccc2c1[N+](=O)[O-]`, more than 39.9 µg/mL; under `Cc1cc2oc(=O)cc(CN3CCOCC3)c2cc1O`, more than 41.3 µg/mL.
`Cc1ccc2c(CC(=O)NCC(C)(C)N3CCOCC3)coc2c1` displayed a solubility (kinetic) of more than 49.6 µg/mL.
The result for `CC1CN(C(=O)c2cc3cc(F)ccc3[nH]2)CC(C)O1` (stereo not drawn) reads 32.2 µg/mL (≈ 117 µM); that for `Cc1ccc(C(=O)COc2ncnc3cc(Cl)ccc23)cc1`, 0.4 µg/mL (≈ 1.28 µM); that for `O=C(Oc1ccccc1)N1CCN(C(=O)c2ccco2)CC1`, more than 45 µg/mL.
`O=C(Nc1cccc(C(F)(F)F)c1)c1sc(Cl)nc1C(F)(F)F`: the kinetic solubility came out at 36.3 µg/mL (≈ 96.9 µM).
Turning to `COCCNS(=O)(=O)c1ccc(C)c(C)c1C`, the solubility (kinetic) stood at 34.9 µg/mL (≈ 136 µM).
The molecule `Nc1ccc(Oc2ccc3c(c2)OCO3)cc1` had a solubility (kinetic) of 27.3 µg/mL (≈ 119 µM).
With `Cc1nnc(-c2cnn(C)c2N)n1CCCN1CCOCC1`, the solubility (kinetic) was more than 45.8 µg/mL.
For `OCCCc1cn(Cc2ccccc2)c2ccccc12`, the solubility (kinetic) came out at 22.9 µg/mL (≈ 86.3 µM).
In turn, `COc1ccccc1NC(=O)C1CCCN(c2cnccn2)C1` (stereo not drawn) registered a kinetic solubility of more than 46.9 µg/mL.
Take `CC1(C2CC2)NC(=O)N(CC(=O)N2CCN(c3cccc(C(F)(F)F)c3)CC2)C1=O` (stereo not drawn): the kinetic solubility came out at 21.6 µg/mL (≈ 50.9 µM).
Turning to `CC1CC1C(=O)OCC(=O)NC(=O)c1ccc(C(C)(C)C)cc1` (stereo not drawn), the kinetic solubility stood at 7.5 µg/mL (≈ 23.6 µM).
As for `COc1ccc(NC(=O)c2ccccc2C)cc1`, the solubility (kinetic) worked out at 27.1 µg/mL (≈ 112 µM).
`Cc1ccc(CSc2nsc(C)c2C#N)cc1`: the solubility (kinetic) worked out at 3.3 µg/mL (≈ 12.7 µM).
With `O=C(O)c1cc(=O)c2ccccc2[nH]1`, the kinetic solubility is more than 28.4 µg/mL.
As to `CC(=O)Nc1ccc(NC(=O)C(C)OC(=O)c2ccc(S(=O)(=O)N3CCCCC3)cc2)cc1` (stereo not drawn), the kinetic solubility was 6.4 µg/mL (≈ 13.5 µM).
In turn, `CC(=O)c1ccc(NC(=O)CN2C(=O)NC3(CCc4ccccc43)C2=O)cc1` (stereo not drawn) came in with a solubility (kinetic) of more than 56.6 µg/mL.
Take `Cn1cccc1C(=O)OCC(=O)N1c2ccccc2NC(=O)C1(C)C`: the solubility (kinetic) turned out to be 12.7 µg/mL (≈ 37.2 µM).
The result for `Cc1cc(-c2ccccc2)c2ccc(NC(=O)C(C)(C)C)nc2n1` reads 0.6 µg/mL (≈ 1.88 µM).
In turn, `Cc1ccc(C(=O)NCC(C)NC(=O)c2ccc(C)c([N+](=O)[O-])c2)cc1[N+](=O)[O-]` (stereo not drawn) gave a solubility (kinetic) of 1.8 µg/mL (≈ 4.5 µM).
Under `CC(=O)c1cccc(NC(=O)COc2ccc3oc(=O)cc(C)c3c2)c1` stands 1.4 µg/mL (≈ 3.98 µM); under `NC(=O)CSc1ccc(F)cc1`, more than 27.8 µg/mL; under `N#Cc1ccc(C(=O)OCC(=O)N2CCCCCC2)cc1`, more than 42.9 µg/mL.
With `Cc1ccccc1NC(=S)NNC(=O)c1ccco1`, the solubility (kinetic) is more than 41.3 µg/mL.
The molecule `O=C(COC(=O)c1ccc([N+](=O)[O-])o1)NCCCc1ccccc1` had a solubility (kinetic) of more than 49.8 µg/mL.
Regarding `CC(C)(C)N1CC(C(=O)Nc2cccc(Cl)c2Cl)CC1=O` (stereo not drawn), the kinetic solubility is more than 49.4 µg/mL.
The result for `CC(C)(C)c1csc(NC(=O)c2cccnc2)n1` reads 10 µg/mL (≈ 38.3 µM); that for `COC(=O)c1ccccc1SCc1csc(C)n1`, 38.7 µg/mL (≈ 139 µM); that for `CCc1cccc(NS(=O)(=O)c2c(C)[nH]c(=O)[nH]c2=O)c1`, more than 46.4 µg/mL.
`Cc1ccc(C)c(Nc2nc(-c3ccncc3)nc3ccccc23)c1` displayed a kinetic solubility of less than 0.2 µg/mL.
Molecule `Cc1cccc(NC(=O)c2cc(-c3ccccn3)nc3ccccc23)c1C` showed a kinetic solubility of 3.5 µg/mL (≈ 9.9 µM).
For `COc1ccc2cc(C#N)c(Nc3cccc(F)c3)nc2c1`, the kinetic solubility was less than 0.2 µg/mL.
`CCN(CC)c1ccc(CNc2nc3ccccc3n2C(C)C)cc1`: the kinetic solubility was found to be 0.3 µg/mL (≈ 0.892 µM).
For `CCOc1ccc(N2C(=O)CSC2=S)cc1`, the solubility (kinetic) is less than 0.5 µg/mL.
Under `CCCCC(CC)C1OCC(CN2CCCCC2)O1` (stereo not drawn) stands 4.3 µg/mL (≈ 16 µM); under `COc1cc(SC)ccc1C(=O)OCC(=O)N1CCCC1`, more than 46.4 µg/mL.
Under `O=S(=O)(c1ccc(Cl)cc1)N1CCN(CCc2ccncc2)CC1` stands 18.3 µg/mL (≈ 50 µM).
The molecule `COc1ccc(C(=O)Nc2ccc(C(=O)N3CCCCC3C)cc2)c(OC)c1OC` (stereo not drawn) had a kinetic solubility of more than 61.9 µg/mL.
With `COCCNC(=O)Cn1cc(C(=O)c2ccco2)c2ccccc21`, the kinetic solubility is more than 49 µg/mL.
Take `CC(=O)Nc1ccccc1C(F)(F)F`: the solubility (kinetic) was determined as 5.5 µg/mL (≈ 27.1 µM).
Under `Cn1c(SCC(=O)Nc2ccccc2[N+](=O)[O-])nnc1C(F)(F)F` stands more than 54.2 µg/mL.
Take `Cc1ccnc(NC(=O)c2ccc(Cl)c(NC(=O)c3ccccc3C)c2)c1`: the solubility (kinetic) is 1 µg/mL (≈ 2.63 µM).
As to `O=C1C=C(NCc2ccccc2)c2ccccc2C1=O`, the kinetic solubility turned out to be 4.6 µg/mL (≈ 17.5 µM). Compared with the last molecule, the solubility kinetic is about 4.6-fold higher.
In turn, `Cc1ccc(S(=O)(=O)NC(=O)NC(C)c2ccc(F)cc2)cc1` (stereo not drawn) had a solubility (kinetic) of more than 50.5 µg/mL.
`Cc1cc(NC(=O)CSCC(=O)Nc2cc(C(F)(F)F)ccc2N2CCCCC2)no1` gave a kinetic solubility of 7.6 µg/mL (≈ 16.6 µM).
Take `CC(C)NC(=O)N(Cc1ccccc1)Cc1cccs1`: the solubility (kinetic) was 41.8 µg/mL (≈ 145 µM).
In turn, `CCn1cc(S(=O)(=O)N2CCCC2)cn1` registered a kinetic solubility of more than 34.4 µg/mL.
In turn, `COCCNC(=S)N(C)C1(c2ccccc2Cl)CCCCC1=O` (stereo not drawn) had a kinetic solubility of 48.2 µg/mL (≈ 136 µM).
`O=C(NCCS(=O)(=O)NCC1CCCO1)c1ccccc1` (stereo not drawn) had a solubility (kinetic) of more than 46.9 µg/mL.
`O=C1OCc2ccc(NC(=O)c3c(F)cccc3Cl)cc21` yielded a solubility (kinetic) of 2 µg/mL (≈ 6.54 µM).
Regarding `COc1ccc(C(=O)O/N=C(\N)c2ccccc2)cc1OC`, the solubility (kinetic) was 23.8 µg/mL (≈ 79.3 µM).
In the case of `Cc1onc(-c2ccccc2)c1C(=O)O/N=C(\N)c1ccc([N+](=O)[O-])o1`, the solubility (kinetic) came to 11.6 µg/mL (≈ 32.6 µM).
In turn, `Nc1ncnc2nc[nH]c12` displayed a solubility (kinetic) of more than 20.3 µg/mL.
In the case of `CSC1=NCCN1C(=O)Cc1ccc(-c2ccccc2)cc1`, the solubility (kinetic) is 4.1 µg/mL (≈ 13.2 µM).
In turn, `O=C(Nc1cccc([N+](=O)[O-])c1)Nc1ccc2c(c1)OCCO2` had a solubility (kinetic) of 0.4 µg/mL (≈ 1.27 µM).
With `COc1cc([N+](=O)[O-])ccc1NC(=O)N1CCCCCC1`, the kinetic solubility is 32.1 µg/mL (≈ 109 µM). This solubility kinetic lies about 80-fold higher than the previous one.
Take `CC(=O)c1sc(NC(=O)COc2ccccc2)nc1C`: the kinetic solubility was determined as 5.7 µg/mL (≈ 19.6 µM).
`COc1ccc(NC(=O)c2cc(F)cc(F)c2)cc1S(=O)(=O)N1CCCCC1` displayed a solubility (kinetic) of 5.1 µg/mL (≈ 12.4 µM). This solubility kinetic and that of the molecule before are within 1.5-fold of each other.
In the case of `CC(=O)c1cc(C(C)=O)c(C)[n+](C)c1C.[O-][Cl+3]([O-])([O-])[O-]`, the kinetic solubility stood at 41.5 µg/mL. This solubility kinetic is about 8.1-fold higher than that of the molecule before.
As for `COc1cc(C(=O)N2CCN(C3CCCCC3)CC2)cc(OC)c1OC.O=C(O)C(=O)O`, the kinetic solubility is more than 67.9 µg/mL.
In turn, `Cc1cnc(N2C(=O)c3ccc([N+](=O)[O-])cc3C2=O)s1` displayed a kinetic solubility of 28 µg/mL (≈ 96.8 µM).
`Cc1cc(NC(=O)COC(=O)c2ccco2)no1`: the kinetic solubility is more than 37.5 µg/mL.
Molecule `Cc1ccccc1C(=O)N1CCN(c2ncccn2)CC1` returned a kinetic solubility of more than 42.4 µg/mL.
With `CCC1CN(C(=O)NCc2ccccc2)c2ccccc2O1` (stereo not drawn), the solubility (kinetic) was found to be 43.2 µg/mL (≈ 146 µM).
`COc1ccc(C(C)=O)cc1CN1CC=C(c2ccccc2)CC1` had a kinetic solubility of 28.8 µg/mL (≈ 89.6 µM).
`Cn1c(=O)c(C(=O)NC2CCCCCC2)c(O)c2ccccc21` gave a solubility (kinetic) of less than 0.3 µg/mL.
`Cc1cc(CNC(=O)COC(=O)C2CC3CCCC(C2)C3=O)cc(C)c1O` (stereo not drawn) returned a kinetic solubility of more than 56 µg/mL.
Under `CCN(CC)CCNC(=O)c1ccc(-n2c(C)cc3c2CCCC3=O)cc1` stands 33.7 µg/mL (≈ 91.7 µM).
As for `CCOc1ncccc1C(=O)Nc1ccccc1F`, the kinetic solubility amounted to 2.5 µg/mL (≈ 9.61 µM).
